The source of these data is patent US4778799A, “Synergistic combination of flupirtin and non-steroidal antiphlogistic” (priority 1985, dated 1988).

SMILES strings stand for the structures.

Data set [1] is described as follows: Ulcerogenic effect (stomach mucosa erosion) 24 hours after single oral dispensation. Conditions: 24 mg/kg Diclofenac alone per os. Type of data set: in vivo, albino rat (Sprague-Dawley). The method, then: Testing of Ulcerogenic Effect Relying On the Method of Jahn and Adrian (Arzneimittelforschung, Volume 19 (1969) pages 36-52)
The experimental animals are male albino rats which are maintained under the usual conditions at 21°-22° C. After 48 hours of qualified feeding the test materials were dispensed perorally an increasing dosages. The animals were killed 24 hours later and the stomachs investigated for ulcerogenic changes according to the method of Munchow, Arzneimittelforschung, Volume 4 (1954), pages 341-344. (The size of the ulcers formed is measured are classified according to Munchow.)

Data set [2] is described as follows: Acetic Acid-Writhing Test according to Koster et al., analgetic activity, per os. Type of data set: in vivo, white mouse (NMRI-Mouse). More on the design: ED50: unit: mg/kg. Conditions: for ED50: substance alone, per os, 30 minutes after giving, linear regression. As to the method: These investigations were carried out in the Acetic Acid Test (Writhing Test) on the white mouse.
Writhing According to Koster et al; Fed.
(§1) Animal: White Mouse (NMRI-Mouse); Application: per os
Writhing Test According to Koster et al.: Fed.
as §1
The pain reaction is expressed as a characteristic stretching of the animals ("writhing syndrome") which persists in irregular time intervals for a long period of time after the injection of the acetic acid. The dosage dependent suppression of the frequency of the stretching motion compared to an untreated control group is expressed in percent as analgetic effect. The evaluation is carried out by determination of the ED50 (Method of Linear Regression).
The acetic acid test is marked by the fact that not only is there detectable the effect of strong, central acting analgetics but also preponderantly peripherally acting analgetics-antipyretics and antiphlogistically active pharmaceuticals such as phenyl butazone, Indometacin and others. Therewith the effect in this procedure refers to a peripheral component of the analgesic.

The nature of data set [3]: Randall-Selitto Test, inflammation pain, per os. Type of data set: in vivo, albino rat (Sprague-Dawley). The note with it: alone. As to the method: Randall-Selitto-Test According to Randall, Selitto, Arch. int.
Animal: Albino-Rat (Sprague-Dawley); Application: per os
Sucker, Fuchs, Speiser, Pharmazeutische Technologie, Thieme-Verlag, Stuttgart, 1978. Short Description of the Pharmacological Test Methods Mentioned in the Application Randall-Selitto-Test (Inflammation Pain on the Rat)
In accordance with the method of Randall and Selitto (L. O. Randall, J. J. Selitto, Arch. int. Pharmacodyn., Volume 111, pages 409-418, 1957) rats were injected subplantarly with […] of a 20% (in dimineralized water) brewer's yeast suspension in the right hind paw. 21/2 hours later the test materials were dispensed and 30 minutes later the swelling pain measured with an Algesiemeter as pressure (in grams) on the inflamed paw (apparatus of Ugo Basile, Milan, Italy). As criteria there are considered the defensive reaction of the animals drawing the paw away and/or freeing themselves from the grip of the experimenters. The effect of the material was determined from the increase of the swelling pain compared to the untreated control group. The experimental procedure different from the original method in that the materials were applied 21/2 hours after the setting of edema and not simultaneously therewith. In this way there should be prevented the development of edema, being checked by a possible antiphlogistic action and the analgesy superimposed or simulated.
The ED50 was determined by means of the method of linear regression.

Data set [4] in a line: Bradykinin-Edema Test, antiphlogistic activity, per os. Type of data set: in vivo, albino rat (Sprague-Dawley). The note with it: alone. As to the method:
Bradykinin-Edema-Test Relying On and Modification of the Method of
Morsdorf et al (Arch. int. Pharmacodyn. 192,111-127 (1971). Animal:
Albino-rat (Sprague-Dawley):
Relying on the modification of the method of Morsdorf et al (Arch. int. Pharmacodyn. Volume 192, pages 111-127 (1971)) male rats received subplantarly in the right hind paw an injection of a 1% carrageenin solution (Carrageenin, Type IV, Sigma C-3889). One hour and four hours later there was determined the volume of the paw. To measure the volume there was used a volume meter (Rhema-Labortechnik Company, D-6238 Hofheim, Type 2060). Directly after the first measurement the test substance was dispensed by means of a gullet stomach catheter. There was calculated the increase in the swelling of the paw in the second measurement compared to the first measurement in absolute values (ml). The evaluation included the determination of the percent average value of the difference of the edema volumes one and four hours after receiving the inflammatory solution. The edema inhibiting action was calculated in percent from the edema volume measured by water displacement in comparison to the edema volume of the untreated inflammed control group.
As the single change in comparison to the Carrageenin-Edema Test in place of Carrageenin there was injected subplantarly Bradykinin (Sigma B 3259) 0.01 mg/animal in 0.1 ml of a 0.9% sodium chloride solution.

Where [5] appears, read: Mus musculus, po, read-out: Activity in %.

`O=C(O)Cc1ccccc1Nc1c(Cl)cccc1Cl` [Diclofenac]: the “ulcerogenic effect (stomach mucosa erosion)” value in data set [1] was “erosion of the stomach mucosa”. The ED50 was 12 mg/kg in data set [2] (Mus musculus, po, 0.5 h); 12.1 mg/kg in data set [2] (30 min); 2.95 mg/kg in data set [3] (Rattus norvegicus, po, 0.5 h, per os, 30 minutes after giving, linear regression, read-out: ED50); “No ED50” in data set [4] (per os, printed in words: no ED50 defineable). Besides, in data set [2] (setting [5]), the inhibition in vivo at 3.9 mg/kg was 33.3%. For the same compound, the inhibition in vivo at 7.8 mg/kg in data set [2] (setting [5]) is 50%. The inhibition in vivo at 15.6 mg/kg in data set [2] (setting [5]) was determined as 45.8%. In addition, in data set [2] (setting [5]), the inhibition in vivo at 31.25 mg/kg came out at 66%. Moreover, the inhibition in vivo at 62.5 mg/kg in data set [2] (setting [5]) amounted to 67.4%. The inhibition in vivo at 125 mg/kg in data set [2] (setting [5]) was 91.7%. Further, the minimal effective dose in data set [2] (Mus musculus, po, read-out: lowest analgetically effective dosage) amounted to 3.9 mg/kg. Besides, the Activity in % in data set [3] (1.0 mg/kg per os) worked out at 20.99%; in data set [3] (3.0 mg/kg per os), 32.60%; in data set [3] (10.0 mg/kg per os), 100.55%; in data set [3] (30.0 mg/kg per os), 135.36%. The “Activity in % (- = inhibiting)” value in data set [4] (1.0 mg/kg per os) is on record as “+2.9%”; in data set [4] (3.0 mg/kg per os), “+8.6%”; in data set [4] (9.0 mg/kg per os), -31.4%; in data set [4] (27.0 mg/kg per os), -45.7%.

By ED50 is commonly meant the dose that gives a 50% effect, or the effect in half of the subjects.
